Earlier results on 1 molecule are cited in patent publication US20080139661A1, “Fragranted moistening fluids that destroy and/or inhibit the growth of biological organisms while minimizing a tacky build up” (Pitney Bowes Incorporated, priority 2006, published 2008).

The conditions of the data set: at 20° C., typical value.

With `O` [Water], the surface tension entry is listed as “around 72 dynes/cm”.
